Results from PubChem BioAssay AID1996.
Values after ≈ are worked out from the molar mass of the structure shown.

Settings: buffer; pH 7.4; 200.0 µM

| Structure (SMILES) | solubility kinetic [µg/mL] |
| --- | --- |
| COc1ccc(C(=O)c2nc3ccccc3n2C(C)C)cc1 | 22.3 (≈ 75.8 µM) |
| COc1ccc(CCNC(=O)c2ccc(Cl)nc2)cc1 | 36.5 (≈ 126 µM) |
| CCCCn1c(N)c(N(CCC(C)C)C(=O)COC(=O)/C=C/c2ccc(F)cc2)c(=O)[nH]c1=O | 8.5 (≈ 17.9 µM) |
| C/C(CC(=O)Nc1ccccn1)=N\NC(=O)c1cccc(C)c1 | > 46.6 |
| COc1ccc(OC)c(CCNC(=O)CCc2cn(C)c3ccccc23)c1 | 30.6 (≈ 83.5 µM) |
| CC(C)C(NS(=O)(=O)c1cc(C(=O)O)ccc1Cl)C(=O)O (stereo not drawn) | 44.7 (≈ 133 µM) |
| COc1cc(C(=S)N2CCCC2)ccc1OCc1ccc(C)cc1 | < 0.7 |
| CN(C)c1ccc(CNc2ncnc3sccc23)cc1 | 29.7 (≈ 104 µM) |
| O=C1C(CSCc2ccccc2)NC(=S)N1c1ccccc1 (stereo not drawn) | 2.9 (≈ 8.83 µM) |
| Cc1ccc(NC(=O)C(=O)C2C(=O)Nc3ccccc32)cc1 (stereo not drawn) | 39.8 (≈ 135 µM) |
| CC1CCCC(C)N1C(=O)COC(=O)c1cc(F)c(F)cc1Cl (stereo not drawn) | > 51.9 |
| COc1ccc(OC)c(N2C(=O)CC(=O)NC2=O)c1 | > 39.6 |
| Cc1ccc(OCC(=O)NCCc2c[nH]c3ccccc23)cc1 | 4.9 (≈ 15.9 µM) |
| Cc1ccc2c(=O)c(CN3CCCCCC3)c(C)[nH]c2c1C | 40.6 (≈ 136 µM) |
| CCCCn1c(=O)c(C(=O)NCc2ccco2)c(O)c2ccccc21 | < 0.4 |
| COc1ccc(-c2nc3c4ccccc4ccn3c2CN2CCCCC2)cc1 | 1.7 (≈ 4.58 µM) |
| CCOc1ccccc1NC(=O)CN1C(=O)C(C)SC(C)C1=O (stereo not drawn) | 34.5 (≈ 103 µM) |
| Cc1ccc(NC(=O)COC(=O)c2nn(C)cc2Cl)cc1 | > 46.2 |
| O=S(=O)(Nc1ccccc1)c1ccc2c(c1)CCO2 | 37.7 (≈ 137 µM) |
| CC(C)N1CCN(Cc2c[nH]c3ccccc23)CC1CCO (stereo not drawn) | 32.8 (≈ 109 µM) |
| CCOC(=O)Cn1ccc(NC(=O)c2ccc(F)cc2)n1 | > 43.7 |
| CNC(=O)C(=O)Nc1c(O)c2ccccc2[nH]c1=O | > 39.2 |
| COc1c(Cl)ccc(Cl)c1C(=O)NC(=S)N1CCOCC1 | > 52.4 |
| CCNc1c([N+](=O)[O-])c(=O)n(CC)c2ccccc12 | 34.1 (≈ 131 µM) |

| Structure (SMILES) | solubility kinetic [µg/mL] |
| --- | --- |
| COc1ccc(NC(=O)C2CCCN(c3nccc(C)n3)C2)cc1 (stereo not drawn) | 3.8 (≈ 11.6 µM) |
| O=c1oc2ccccc2c(CNc2ccccc2)c1[N+](=O)[O-] | 3.1 (≈ 10.5 µM) |
| O=C(O)c1ccccn1 | > 18.5 |
| CN(C)C(CNS(=O)(=O)c1cc([N+](=O)[O-])ccc1Cl)c1ccco1.Cl (stereo not drawn) | 20.6 |
| Cn1cc(-c2ccccc2C(N)=O)c(=O)c2ccccc21 | > 41.7 |
| Nc1c(C(=O)N2CCOCC2)sc2nc3c(cc12)CCCC3 | > 47.6 |
| CC(C)CNC(=O)C1CCN(CC2CCCCC2)CC1.O=C(O)C(=O)O | > 55.6 |
| Cc1cc(C(=O)NC(C)C2CCCO2)c(C)o1 (stereo not drawn) | > 35.6 |
| COc1ccccc1NC(=O)CC1CCCC1 | > 35 |
| COc1cccc(CC(=O)Nc2ccc(-c3csc(C)n3)cc2)c1 | 2.5 (≈ 7.39 µM) |
| CCc1nnc(NC(=O)CCC(=O)NC2CC2)s1 | > 40.2 |
| COc1cc(C(F)(F)F)ccc1C(=O)NCCc1ccco1 | 42.9 (≈ 137 µM) |
| CC(C)C(=O)NC(NC1CCS(=O)(=O)C1)C(Cl)(Cl)Cl (stereo not drawn) | > 52.8 |
| Cc1ccc(CNC(=O)CSCc2ccccc2)cc1 | 19.7 (≈ 69 µM) |
| CCN(CC)c1ccc(C(=O)OCC(=O)N2CCCC2)cc1 | > 45.7 |
| Cc1cccc(CSCc2ccc(C(=O)NC3CCCC3)o2)c1 | 25.6 (≈ 77.7 µM) |
| Cc1ccc(NC(=S)N2CCCCC2CO)cc1C (stereo not drawn) | > 41.8 |
| CN(C)CC(O)CN(c1ccccc1)c1ccccc1 (stereo not drawn) | > 40.6 |
| O=C(CC1C(=O)NCCN1Cc1cccc(F)c1)NC1CCC1 (stereo not drawn) | 42 (≈ 132 µM) |
| O=C(O)/C=C/C(=O)NCCC(c1ccccc1)c1ccccc1 | > 46.4 |
| CC(C)(C)CC(=O)Nc1ccc(S(=O)(=O)NC2=NCCCCC2)cc1 | > 54.8 |
| COC(=O)c1ccc(NC(=O)c2ccc3c(c2)C(=O)N(C)C3=O)cc1 | < 0.4 |
| Nc1cc(N)cc(C(=O)Nc2ccc3c(c2)C(=O)NC3=O)c1 | > 44.4 |
| COc1ccc(CCNC(=O)c2noc(C(C)C)c2[N+](=O)[O-])cc1OC | > 54.5 |

| Structure (SMILES) | solubility kinetic [µg/mL] |
| --- | --- |
| CCc1nnc(SCC(=O)NC2CC2)n1CC | > 38.2 |
| Cc1ccc(C(=O)NCc2ccc3c(c2)OCO3)cc1C | 31.7 (≈ 112 µM) |
| O=S(=O)(NCc1ccccc1)c1cccc2nsnc12 | 44.2 (≈ 145 µM) |
| CCCNC(=O)Nc1cccc(NC(C)=O)c1 | > 35.3 |
| Cc1cc(C)c(OCC(=O)OC(C)C(=O)NC2CC2)c(C)c1 (stereo not drawn) | > 45.8 |
| Cl.O=C(CN1CCCCC1)c1ccc2c(c1)OCO2 | > 42.6 |
| CNc1nc2c(N)ncnc2n1[C@H]1O[C@@H](CO)[C@H](O)[C@@H]1O | > 44.4 |
| CN(c1ccccc1)S(=O)(=O)c1ccc2c(c1)oc(=O)n2C | 27.1 (≈ 85.1 µM) |
| Cn1cccc1C(=O)NCc1ccc(S(N)(=O)=O)cc1 | > 44 |
| O=C(NC1CCCCC1)C1CCCN1S(=O)(=O)c1ccc(F)cc1 (stereo not drawn) | 8 (≈ 22.6 µM) |
| Cc1ccc(C(=O)NCCCNC(=O)COc2ccccc2Cl)cn1 | > 54.3 |
| O=C(COC(=O)c1ccc(Br)o1)NCC1CCCCC1 | > 51.6 |
| COc1ccc(Br)cc1CN(C)C(=O)C1CC(=O)N(C2CCCC2)C1 (stereo not drawn) | 54.2 (≈ 132 µM) |
| Cc1ccc(NC(=O)CCCN2C(=S)NC(C)(C)CC2C)cc1 (stereo not drawn) | 45.5 (≈ 136 µM) |
| N#Cc1cccc(CS(=O)(=O)c2ccc(Cl)cc2)c1 | 38.2 (≈ 131 µM) |
| Cc1cc2cc(CNC(=O)Nc3ccccc3)ccc2[nH]1 | 15.6 (≈ 55.8 µM) |
| CC(=O)NCCc1nc2ccccc2n1CCOc1ccccc1 | > 48.5 |
| Cc1ccc(C(=O)Cn2c(C(=O)O)cc3ccccc32)cc1 | > 44 |
| CN(C(=O)c1ccc(N2CCCCC2)c([N+](=O)[O-])c1)C1CCS(=O)(=O)C1 (stereo not drawn) | > 57.2 |
| CN(CCOc1ccccc1)CC(=O)Nc1cc([N+](=O)[O-])ccc1Cl | 13.7 (≈ 37.7 µM) |
| Cc1ccc(NC(=O)CN2CCN(Cc3ccccc3)CC2)cc1F | 42.8 (≈ 125 µM) |
| Cc1cc(C)nc(NC(N)=S)n1 | 10.4 (≈ 57.1 µM) |
| CN(C(=O)COC(=O)c1cn(C)c2ccccc12)C1CCCCC1 | > 49.3 |
| CC(=O)Nc1cccc(NS(=O)(=O)c2c(C)noc2C)c1 | > 46.4 |

| Structure (SMILES) | solubility kinetic [µg/mL] |
| --- | --- |
| CCOC(=O)N1CCN(C(=O)c2ccc(S(=O)(=O)Nc3ccccc3)cc2)CC1 | > 62.6 |
| O=C(c1cccc([N+](=O)[O-])c1)N1CCCC(C(=O)N2CCCCCC2)C1 (stereo not drawn) | > 53.9 |
| Cc1cc(NC(=O)Nc2ccc(Cl)c(Cl)c2)no1 | < 0.2 |
| O=Cc1c(F)cccc1N1CCCC1 | 15.3 (≈ 79.2 µM) |
| O=C(CSc1nncc2ccccc12)Nc1cccc(C(=O)O)c1 | > 50.9 |
| COc1cc(/C=C/C(=O)OCC(=O)NCC2CCCCC2)ccc1O | > 52.1 |
| Cc1ccc(CN2C(=O)CNC2=S)cc1 | > 33 |
| CC1CCN(c2nc(N(C)c3ccccc3)nc(N)c2[N+](=O)[O-])CC1 | 4.6 (≈ 13.4 µM) |
| CCc1ccccc1NC(=S)N1CCN(c2ccccc2F)CC1 | 4.4 (≈ 12.8 µM) |
| Cc1ccccc1NC(=O)c1ccc2nccnc2c1 | 37.3 (≈ 142 µM) |
| COc1ccc(CCNC(=O)COC(=O)c2cc(S(=O)(=O)N3CCOCC3)ccc2C)cc1OC | > 76 |
| O=C(Nc1nc2cc3c(cc2s1)OCCO3)c1cccs1 | 0.6 (≈ 1.88 µM) |
| CC(C)(C)c1ccc(C(=O)NCCc2ccccc2)cc1 | 0.8 (≈ 2.84 µM) |
| CCOc1ccc(C(=O)NCc2ccco2)cc1OC | 37.7 (≈ 137 µM) |
| COc1ccc(C(=O)O)cc1S(=O)(=O)Nc1ccc(N2CCCCC2)cc1 | 54.7 (≈ 140 µM) |
| COc1cccc(C(=O)Nc2cccc3c2ccc2cccn23)c1 | 1.3 (≈ 4.11 µM) |
| Cn1c(-c2ccccc2)cnc1NCc1cc(Cl)ccc1O | 1.2 (≈ 3.82 µM) |
| CC1=CC(C)(C)N(C(=O)CN2C(=O)CCC2=O)c2ccc(C)cc21 | > 49 |
| CC(OC(=O)c1ccncc1)C(=O)Nc1cccc([N+](=O)[O-])c1 (stereo not drawn) | > 47.3 |
| Cc1ncc([N+](=O)[O-])n1CC(=O)Nc1cc(Cl)ccc1Cl | 0.9 (≈ 2.73 µM) |
| CCCn1c(=O)c(C(=O)Nc2ccccc2C)c(O)c2ccccc21 | < 0.4 |
| CC(C)N(Cc1ccccc1)C(=O)c1cccs1 | > 38.9 |
| Fc1ccc(-c2c[nH]c(=S)n2Cc2ccccc2)cc1 | 1.4 (≈ 4.92 µM) |
| Cc1c(CC(=O)Nc2ccc(Cl)cc2)sc2ccc(Cl)cc12 | < 0.8 |

| Structure (SMILES) | solubility kinetic [µg/mL] |
| --- | --- |
| COc1cc(Cl)c(C)cc1NC(=O)CSC1=NCCS1 | 11 (≈ 33.2 µM) |
| N#Cc1c(F)cccc1N1CCC(C#N)CC1 | > 34.4 |
| COc1ccc(NC(=O)c2ccc3c(c2)NC(=O)CO3)cc1OC | 10.2 (≈ 31.1 µM) |
| Nc1cccc(/C=C/C(=O)O)c1 | > 24.5 |
| CCOc1ccc(OCCC(=O)OCC(=O)NC2CC2)cc1 | > 46.1 |
| CCN(C(=O)C(C)Sc1nnc(-c2ccncc2)n1C)C1CCCCC1 (stereo not drawn) | > 56 |
| CC(C)COP(=O)(c1ccc(N(C)C)cc1)C(O)c1cccnc1 (stereo not drawn) | 49.6 (≈ 142 µM) |
| Cc1cccc(C)c1OCC(=O)N1CCc2ccccc2C1 | 34.5 (≈ 117 µM) |
| O=C(CSc1ncn[nH]1)NCc1ccc2c(c1)OCO2 | > 43.8 |
| C=C(C)C(=O)Nc1cccnc1Oc1ccc(F)cc1F | 40.8 (≈ 141 µM) |
| O=C(Nc1cc(Cl)ccc1Cl)C1CC(=O)N(c2ccccc2)C1 (stereo not drawn) | 1.7 (≈ 4.87 µM) |
| Cc1cccc(N=C2NC(=O)C(CO)(CO)S2)c1 | 22.4 (≈ 84.1 µM) |
| O=C(Nc1ccccc1)NC1(C(=O)N2CCC(O)CC2)CCCCC1 | > 51.8 |
| Cc1cc(=O)oc2cc(NC(=O)c3ccccc3Cl)ccc12 | 8 (≈ 25.5 µM) |
| Cc1cc(=O)[nH]c(SC(C)C(=O)Nc2cccc3ccccc23)n1 (stereo not drawn) | 42.7 (≈ 126 µM) |
| CCCCN(C(=O)C1COc2ccccc2O1)c1c(N)n(CCC)c(=O)[nH]c1=O (stereo not drawn) | > 60.4 |
| Cc1ccc(C(=O)N(CN2CCCC2=O)c2ccccc2)cc1 | > 46.3 |
| O=C(c1ccc(Cl)cc1)N1CCc2c([nH]c3ccccc23)C1C(F)(F)F (stereo not drawn) | 1.4 (≈ 3.7 µM) |
| COc1ccc(S(=O)(=O)NCCCN2CCOCC2)cc1F | > 49.9 |
| CC1CCC(NC(=O)C2CC(O)CN2S(=O)(=O)c2ccc([N+](=O)[O-])cc2)CC1 (stereo not drawn) | > 61.7 |
| CCN(CC)C(=O)c1ccc(-c2cccs2)s1 | 32.6 (≈ 123 µM) |
| COc1ccc(C2(C#N)CCC(=O)N2c2ccccc2)cc1 (stereo not drawn) | 40.9 (≈ 140 µM) |
